Patent publication US20220242846A1, “ISOINDOLINONE COMPOUNDS” (Monte Rosa Therapeutics AG, priority 2019, published 2022)
Like-named read-outs stand apart in the source and are kept apart here.

Tests used:
[1] = target: GSPT1 (Homo sapiens, UniProt P15170+Q96SW2); experiment: Immunofluorescence assay for GSPT1 degradation in CAL-51 cells; format: cell-based; set-up: CAL-51 cells were purchased from DSMZ (cat. Number ACC302); endogenous in cells; host or cells: CAL-51 (DSMZ ACC302); details: compound treatment 6 hours
Experimental: CAL-51 cells were purchased from DSMZ (cat. Number ACC302), sub-cultured in 90% Dulbecco's MEM (4.5 g/L glucose, Gibco 11965) +10% heat inactivated FBS (BioConcept, 2-01F136I) and incubated at 37° C., 5% CO2. For the assay, imaging microtiterplate Cell Carrier 96 Ultra (Perkin Elmer 6055302) were pre-coated with Fibronectin (Sigma F085, 300 at 0.2 μg/ml) in PBS (1000, Gibco 14190) for 45 min at room temperature, rinsed with PBS and CAL-51 cells (30K cells/well) were plated and let to adhere overnight. Cells were treated with compounds typically using a serial dilution ranging from 30 μM to 0.1 nM for 6 hours. Compounds were stored at 10 mM DMSO stocks. Vehicle (DMSO), positive (CC-885, 10 μM) and rescue controls (positive control plus 0.2 μM bortezomib) were also included at this stage. Cells were subsequently rinsed with PBS and fixed in 10% Formalin solution (50 μl, Sigma HT5011)) for 20 mins at room temperature. Following three consecutive PBS washes (100 μl), cells were permeabilized in 0.1% Triton X-100 in PBS (Sigma 93443, 50 μl) for 15 mins at room temperature. Following three further PBS washes, 50 μl blocking buffer (1% BSA, Sigma A4503, in PBS) was added for 45 min for signal-to-noise reduction. Primary antibody (human GSPT1, Sigma HPA052488) was diluted in blocking buffer (dil. 1/300, 35 μl/well) and incubated with the cells overnight at 4° C. After three PBS washes, Alexa-fluor 488 coupled secondary antibodies (Invitrogen, A32731, dil. 1/1000), Alexa-fluor 647-Phalloïdin (Invitrogen, A22287, dil. 1/200) and DAPI (Thermo, #62248, dil.1/1000) were diluted in blocking buffer and incubated with the samples for 2 hours at room temperature. After three final PBS washes, samples were conserved in 1000 PBS in the dark, until measurement. Image acquisition was performed on the Operetta High-Content Imager (Perkin-Elmer). Fluorescence intensity of Alexa-Fluor 488 (GSPT1), Alexa-Fluor 647 (Actin) and DAPI (Nucleus) were measured. For the determination of GSPT1 DC50 values, a custom algorithm implemented in the PerkinElmer image analysis software Harmony-Acapella® was developed. After user-defined setting of adjustment parameters, the analysis was run identically without human intervention for all image fields. DAPI staining of the nuclei was used to determine the location of cells using standard nuclei detection modules. Segmentation artifacts were removed by threshold-based filters for area, roundness and intensity. The outline of the cells was determined analogously from the sum of the normalized, smoothed DAPI and Actin channel, starting from each nucleus. The Alexa-Fluor 488 (GSPT1) signal intensity in each cell was finally measured, in order to obtain a Mean intensity per cell. GSPT1 degradation (DC50) was calculated after normalization to controls and data import in CDD vault Database, using non-linear regression. Activity for GSPT1 Degradation Table 3 assigns each compound a code indicating the ability for GSPT1 degradation: A, B or C. According to the code, A represents a DC50 value of ≤100 nM, B represents a DC50 value >100 nM and ≤300 nM and C represents a DC50 value of >300 nM.

[2] = target: T1, Full length wild-type cereblon CRBN (Homo sapiens, UniProt Q96SW2); experiment: Fluorescence polarization (FP) assay indicating cereblon binding; details: CRBN 80.0 nM, fluorescent probe 5 nM, FP measured after 12 hours; read-out: rFP IC50
T1 construct: Full length wild-type cereblon CRBN (80.0 nM, 10 μL) was incubated in assay buffer
Text: Protocol for Fluorescent Polarization Assay
Compound activity was monitored in a fluorescence polarization (FP) homogeneous assay using 1-[5-({2-[2-(2-{[2-(2,6-dioxopiperidin-3-yl)-1,3-dioxo-2,3-dihydro-1H-isoindol-4-yl]oxy}acetamido)ethoxy]ethyl}carbamoyl)pentyl]-3,3-dimethyl-2-[(1E,3E)-5-[(2E)-1,3,3-trimethyl-5-sulfo-2,3-dihydro-1H-indol-2-ylidene]penta-1,3-dien-1-yl]-3H-indol-1-ium-5-sulfonate as a fluorescent probe. Unless otherwise stated, all reagents were purchased from Sigma Aldrich. Enzymatic reactions were conducted in Perkin-Elmer Black 384 well ProxiPlate Plus (catalogue no. 6008269) in 10 μL total volume. Full length wild-type cereblon CRBN (80.0 nM, 10 μL) was incubated in assay buffer containing 20 mM HEPES (pH 8.0), […], 0.5 mM TCEP and 0.05% Tween 20 in the presence or absence of compound (300 nL). Inhibitors were stored as 10 mM DMSO stocks in an inert environment (low humidity, dark, low oxygen, room temperature) using the Storage Pod System. Compounds and DMSO were dispensed using the Echo E5XX (Labcyte Inc. USA) to give concentrations from 300 to 0.937 or 3000 to 9.3 nM in a 12 data point curve. […] Following incubation at room temperature for […], the assay was initiated by dispensing the probe to a final concentration of 5 nM (2.5 nL of a 20 μM stock) using the Echo E5XX. FP was measured after a period of 12 hours using a Pherastar plate reader (BMG Labtech, Germany) exciting at 590 nm and measuring the amount of parallel and perpendicular light at 675 nm. The FP signal was subsequently normalized to the no-compound control (i.e., DMSO). Analysis and IC50 values were derived using Dotmatics (Dotmatics UK) software.

[3] = read-out: Code: activity for GSPT1 degradation (DC50)
[4] = GSPT1 degradation, read-out: DC50

T1 sequence (Q96SW2 whole entry): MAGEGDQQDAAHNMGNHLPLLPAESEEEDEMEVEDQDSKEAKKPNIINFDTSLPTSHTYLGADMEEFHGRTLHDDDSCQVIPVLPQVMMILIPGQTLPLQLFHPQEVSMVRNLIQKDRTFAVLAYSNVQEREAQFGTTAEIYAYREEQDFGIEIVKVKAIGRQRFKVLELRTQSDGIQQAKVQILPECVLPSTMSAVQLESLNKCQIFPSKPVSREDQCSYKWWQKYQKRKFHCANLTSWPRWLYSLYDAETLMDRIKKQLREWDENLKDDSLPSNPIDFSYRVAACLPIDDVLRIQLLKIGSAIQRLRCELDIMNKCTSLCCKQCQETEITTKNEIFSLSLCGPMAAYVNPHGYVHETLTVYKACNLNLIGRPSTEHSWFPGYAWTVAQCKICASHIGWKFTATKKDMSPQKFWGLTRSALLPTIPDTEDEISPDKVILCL
Chain of GSPT1 (P15170 whole entry): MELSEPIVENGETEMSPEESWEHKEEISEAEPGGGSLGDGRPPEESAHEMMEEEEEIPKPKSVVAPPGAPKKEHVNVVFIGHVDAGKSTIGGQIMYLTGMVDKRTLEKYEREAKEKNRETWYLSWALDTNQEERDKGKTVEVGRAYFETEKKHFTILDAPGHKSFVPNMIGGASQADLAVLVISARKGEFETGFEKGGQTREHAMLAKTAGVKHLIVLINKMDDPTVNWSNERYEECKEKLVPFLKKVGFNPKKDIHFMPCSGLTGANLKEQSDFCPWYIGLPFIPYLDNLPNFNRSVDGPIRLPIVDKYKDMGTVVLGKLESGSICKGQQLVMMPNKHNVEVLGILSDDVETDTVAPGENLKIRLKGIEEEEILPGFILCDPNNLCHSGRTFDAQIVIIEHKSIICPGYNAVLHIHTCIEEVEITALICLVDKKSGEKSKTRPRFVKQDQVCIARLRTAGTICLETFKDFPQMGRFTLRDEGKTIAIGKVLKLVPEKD
Chain of GSPT1 (Q96SW2 whole entry): as the sequence (Q96SW2 whole entry) above
Chain of GSPT1 (Q16531 2-1140 partner limits assumed): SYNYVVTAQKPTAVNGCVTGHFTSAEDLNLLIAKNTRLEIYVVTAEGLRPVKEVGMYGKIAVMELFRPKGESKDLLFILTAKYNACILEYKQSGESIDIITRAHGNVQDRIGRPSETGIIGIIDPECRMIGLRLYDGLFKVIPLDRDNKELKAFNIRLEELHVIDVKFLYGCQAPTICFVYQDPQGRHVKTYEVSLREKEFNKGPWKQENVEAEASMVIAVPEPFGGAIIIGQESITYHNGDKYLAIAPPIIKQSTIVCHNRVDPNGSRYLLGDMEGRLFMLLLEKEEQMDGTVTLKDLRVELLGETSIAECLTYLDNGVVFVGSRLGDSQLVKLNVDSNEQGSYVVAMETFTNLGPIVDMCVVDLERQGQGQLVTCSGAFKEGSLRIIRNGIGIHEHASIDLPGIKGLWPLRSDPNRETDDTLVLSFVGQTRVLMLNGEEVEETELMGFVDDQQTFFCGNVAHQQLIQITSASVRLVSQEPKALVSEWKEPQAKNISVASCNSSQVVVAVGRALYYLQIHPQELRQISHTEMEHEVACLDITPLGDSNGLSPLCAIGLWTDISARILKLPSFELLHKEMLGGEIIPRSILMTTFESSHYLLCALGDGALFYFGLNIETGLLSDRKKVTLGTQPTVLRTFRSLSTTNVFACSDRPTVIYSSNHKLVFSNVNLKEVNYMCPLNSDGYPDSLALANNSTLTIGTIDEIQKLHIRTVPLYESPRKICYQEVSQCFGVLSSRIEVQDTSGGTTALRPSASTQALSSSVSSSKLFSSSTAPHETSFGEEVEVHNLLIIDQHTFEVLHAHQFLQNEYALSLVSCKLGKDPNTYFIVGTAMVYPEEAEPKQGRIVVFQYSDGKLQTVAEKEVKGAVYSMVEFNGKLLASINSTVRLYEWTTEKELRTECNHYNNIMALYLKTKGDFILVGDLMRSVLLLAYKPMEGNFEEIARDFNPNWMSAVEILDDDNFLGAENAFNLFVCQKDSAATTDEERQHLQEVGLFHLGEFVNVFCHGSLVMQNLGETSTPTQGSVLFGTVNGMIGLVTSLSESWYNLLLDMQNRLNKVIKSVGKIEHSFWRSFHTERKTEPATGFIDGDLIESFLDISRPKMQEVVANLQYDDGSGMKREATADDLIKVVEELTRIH

DC50 [1, 3] [nM]	IC50 [2] [nM]	DC50 [1, 4] [nM]	SMILES
> 300	317	–	CN(C)c1ccc(NC(=O)NCc2ccc3c(c2)C(=O)N(C2CCC(=O)NC2=O)C3)cc1 (stereo not shown) [Compound 79]
> 300	515	–	Nc1cccc(NC(=O)NCc2ccc3c(c2)C(=O)N(C2CCC(=O)NC2=O)C3)c1 (stereo not shown) [Compound 80]
> 300	919	–	Nc1ccc(NC(=O)NCc2ccc3c(c2)C(=O)N(C2CCC(=O)NC2=O)C3)cc1 (stereo not shown) [Compound 81]
> 300	387	–	Cn1cc(NC(=O)NCc2ccc3c(c2)C(=O)N(C2CCC(=O)NC2=O)C3)cn1 (stereo not shown) [Compound 83]
> 300	348	–	O=C1CCC(N2Cc3ccc(CNC(=O)Nc4ccsc4)cc3C2=O)C(=O)N1 (stereo not shown) [Compound 84]
> 300	203	–	COc1c(NC(=O)NCc2ccc3c(c2)C(=O)N(C2CCC(=O)NC2=O)C3)ccc(C)c1Cl (stereo not shown) [Compound 86]
> 300	351	–	Cn1ccc(NC(=O)NCc2ccc3c(c2)C(=O)N(C2CCC(=O)NC2=O)C3)n1 (stereo not shown) [Compound 88]
100 to 300	225	198	CN(C)c1cccc(NC(=O)NCc2ccc3c(c2)C(=O)N(C2CCC(=O)NC2=O)C3)c1 (stereo not shown) [Compound 89]
> 300	315	–	O=C1CCC(N2Cc3ccc(CNC(=O)Nc4cccs4)cc3C2=O)C(=O)N1 (stereo not shown) [Compound 91]
> 300	304	–	O=C1CCC(N2Cc3ccc(CNC(=O)Nc4nccs4)cc3C2=O)C(=O)N1 (stereo not shown) [Compound 92]
> 300	248	–	Cc1ccc(NC(=O)NCc2ccc3c(c2)C(=O)N(C2CCC(=O)NC2=O)C3)c(C)c1Cl (stereo not shown) [Compound 93]
> 300	408	–	O=C1CCC(N2Cc3ccc(CNC(=O)Nc4ccon4)cc3C2=O)C(=O)N1 (stereo not shown) [Compound 94]
> 300	432	–	O=C1CCC(N2Cc3ccc(CNC(=O)Nc4cccnc4)cc3C2=O)C(=O)N1 (stereo not shown) [Compound 95]
> 300	222	–	Cc1cc(Cl)c(NC(=O)NCc2ccc3c(c2)C(=O)N(C2CCC(=O)NC2=O)C3)c(C)c1Cl (stereo not shown) [Compound 96]
> 300	301	–	Cc1cc(NC(=O)NCc2ccc3c(c2)C(=O)N(C2CCC(=O)NC2=O)C3)no1 (stereo not shown) [Compound 97]
> 300	404	–	O=C1CCC(N2Cc3ccc(CNC(=O)Nc4cc[nH]c4)cc3C2=O)C(=O)N1 (stereo not shown) [Compound 98]
> 300	367	–	O=C1CCC(N2Cc3ccc(CNC(=O)Nc4cscn4)cc3C2=O)C(=O)N1 (stereo not shown) [Compound 99]
> 300	178	–	Cc1cc(C)c(NC(=O)NCc2ccc3c(c2)C(=O)N(C2CCC(=O)NC2=O)C3)c(Cl)c1Cl (stereo not shown) [Compound 100]
100 to 300	325	224	Cc1ccc(NC(=O)NCc2ccc3c(c2)C(=O)N(C2CCC(=O)NC2=O)C3)cc1CN1CCOCC1 (stereo not shown) [Compound 101, 1-((2-(2,6-dioxopiperidin-3-yl)-3-oxoisoindolin-5-yl)methyl)-3-(4-methyl-3-(morpholinomethyl)phenyl)urea]

DC50 [1, 3] [nM]	IC50 [2] [nM]	DC50 [1, 4] [nM]	SMILES
> 300	389	–	O=C1CCC(N2Cc3ccc(CNC(=O)Nc4cc[nH]n4)cc3C2=O)C(=O)N1 (stereo not shown) [Compound 102]
> 300	272	–	O=C1CCC(N2Cc3ccc(CNC(=O)Nc4cncs4)cc3C2=O)C(=O)N1 (stereo not shown) [Compound 103]
> 300	234	–	O=C1CCC(N2Cc3ccc(CNC(=O)Nc4ccncc4)cc3C2=O)C(=O)N1 (stereo not shown) [Compound 104]
100 to 300	353	188	O=C1CCC(N2Cc3ccc(CNC(=O)Nc4cccc(C(F)F)c4)cc3C2=O)C(=O)N1 (stereo not shown) [Compound 106]
> 300	247	–	Cc1cc(C)c(NC(=O)NCc2ccc3c(c2)C(=O)N(C2CCC(=O)NC2=O)C3)c(C)c1Cl (stereo not shown) [Compound 107]
> 300	661	–	O=C1CCC(N2Cc3ccc(CNC(=O)Nc4cn[nH]c4)cc3C2=O)C(=O)N1 (stereo not shown) [Compound 108]
100 to 300	163	246	Cc1c(Cl)cc(NC(=O)NCc2ccc3c(c2)C(=O)N(C2CCC(=O)NC2=O)C3)cc1CN1CC2(COC2)C1 (stereo not shown) [Compound 109]
> 300	302	–	O=C1CCC(N2Cc3ccc(CNC(=O)Nc4cccc(OC(=O)CN5CCOCC5)c4)cc3C2=O)C(=O)N1 (stereo not shown) [Compound 110]
> 300	240	–	O=C1CCC(N2Cc3ccc(CNC(=O)Nc4cccc(OC5CCNCC5)c4)cc3C2=O)C(=O)N1 (stereo not shown) [Compound 111]
> 300	270	–	O=C1CCC(N2Cc3ccc(CNC(=O)Nc4cccc(-c5ncc[nH]5)c4)cc3C2=O)C(=O)N1 (stereo not shown) [Compound 112]
> 300	283	–	Cc1nccn1-c1cccc(NC(=O)NCc2ccc3c(c2)C(=O)N(C2CCC(=O)NC2=O)C3)c1 (stereo not shown) [Compound 113]
> 300	443	–	O=C1CCC(N2Cc3ccc(CNC(=O)Nc4ccc(C(F)F)cc4)cc3C2=O)C(=O)N1 (stereo not shown) [Compound 114]
100 to 300	230	299	Cn1nccc1-c1cccc(NC(=O)NCc2ccc3c(c2)C(=O)N(C2CCC(=O)NC2=O)C3)c1 (stereo not shown) [Compound 115]
> 300	139	–	Cn1ccc(-c2cccc(NC(=O)NCc3ccc4c(c3)C(=O)N(C3CCC(=O)NC3=O)C4)c2)n1 (stereo not shown) [Compound 116]
> 300	152	–	Cc1c(Cl)cc(NC(=O)NCc2ccc3c(c2)C(=O)N(C2CCC(=O)NC2=O)C3)cc1OCCCN(C)C (stereo not shown) [Compound 117]
≤ 100	256	–	Cc1cc(NC(=O)NCc2ccc3c(c2)C(=O)N(C2CCC(=O)NC2=O)C3)cc(CN2CCOCC2)c1C (stereo not shown) [Compound 118]
–	559	–	Cc1c(Cl)cc(NC(=O)NCc2ccc3c(c2)C(=O)N(C2CCC(=O)NC2=O)C3)cc1CN1CC2CCC(C1)O2 (stereo not shown) [Compound 140]
–	688	–	Cc1c(Cl)cc(NC(=O)NCc2ccc3c(c2)C(=O)N(C2CCC(=O)NC2=O)C3)cc1CN1CCN2CCC1C2 (stereo not shown) [Compound 154]

SMILES	DC50 [1, 3] [nM]	IC50 [2] [nM]	DC50 [1, 4] [nM]
O=C1CCC(N2Cc3ccc(CNC(=O)Nc4cccc(OC(F)(F)F)c4)cc3C2=O)C(=O)N1 (stereo not shown) [Compound 90]	≤ 100	471	–
